Assay results as given in ChEMBL document CHEMBL1201862, “PubChem BioAssay data set” (2004).
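Cells were grown in 96-well plates and exposed to each compound for 48 hours at five concentrations; endpoints were interpolated linearly between bracketing concentrations, or set to the highest concentration if not reached. GI50 is the concentration that inhibits growth by half.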 Calls of active or inactive are those of the source. No stated cut-off is given here; in the data, active = GI50 up to about 1.1 µM and inactive = higher.

Experiments:
Assay in all cases: growth of human tumour cells (NCI), 48 h
786-0 = system: 786-0
A498 = system: A498
BT-549 = system: BT-549
HCT-116 = system: HCT-116
HOP-62 = system: HOP-62
HOP-92 = system: HOP-92
LOX IMVI = system: LOX IMVI
MCF7 = system: MCF7
MDA-MB-231 = system: MDA-MB-231
MDA-MB-435 = system: MDA-MB-435
MDA-N = system: MDA-N
NCI-H226 = system: NCI-H226
NCI-H23 = system: NCI-H23
NCI-H460 = system: NCI-H460
NCI-H522 = system: NCI-H522
OVCAR-3 = system: OVCAR-3
SF-295 = system: SF-295
SF-539 = system: SF-539
SNB-19 = system: SNB-19
T47D = system: T47D

Row | Compound | GI50 (786-0) | GI50 (A498) | GI50 (BT-549) | GI50 (HCT-116) | GI50 (HOP-62) | GI50 (HOP-92) | GI50 (LOX IMVI) | GI50 (MCF7) | GI50 (MDA-MB-231) | GI50 (MDA-MB-435) | GI50 (MDA-N) | GI50 (NCI-H226) | GI50 (NCI-H23) | GI50 (NCI-H460) | GI50 (NCI-H522) | GI50 (OVCAR-3) | GI50 (SF-295) | GI50 (SF-539) | GI50 (SNB-19) | GI50 (T47D)
1 | O=c1[nH]c(=O)n(C2CC(O)C(CO)O2)c2nc3ccc4ccccc4c3nc12 (centres undefined) | 74.3 µM (inactive) | > 100 µM (inactive) | 66.4 µM (inactive) | > 100 µM (inactive) | 32.4 µM (inactive) | 25.6 µM (inactive) | 35.4 µM (inactive) | 46.3 µM (inactive) | 26.9 µM (inactive) | > 100 µM (inactive) | > 100 µM (inactive) | 17.8 µM (inactive) | > 100 µM (inactive) | 21.3 µM (inactive) | 45.6 µM (inactive) | > 100 µM (inactive) | 53.6 µM (inactive) | 92.9 µM (inactive) | 30.5 µM (inactive) | 93.8 µM (inactive)
2 | COc1cccc(/C=C\c2ccc(O)cc2)c1 | 10.4 µM (inactive) | 28.3 µM (inactive) | 17.5 µM (inactive) | 22.7 µM (inactive) | 34.6 µM (inactive) | 18.2 µM (inactive) | 14.9 µM (inactive) | 26.1 µM (inactive) | 30.1 µM (inactive) | 19.5 µM (inactive) | 21.1 µM (inactive) | 28.2 µM (inactive) | 15.1 µM (inactive) | 4.1 µM (inactive) | 7.06 µM (inactive) | 16.8 µM (inactive) | 28.6 µM (inactive) | 13.7 µM (inactive) | 29.7 µM (inactive) | 18.7 µM (inactive)
3 | CSC1(C(=O)O)C2CCC3C2CCC31 (centres undefined) | > 100 µM (inactive) | > 100 µM (inactive) | > 100 µM (inactive) | > 100 µM (inactive) | > 100 µM (inactive) | > 100 µM (inactive) | > 100 µM (inactive) | > 100 µM (inactive) | > 100 µM (inactive) | > 100 µM (inactive) | > 100 µM (inactive) | > 100 µM (inactive) | > 100 µM (inactive) | 62.1 µM (inactive) | > 100 µM (inactive) | > 100 µM (inactive) | > 100 µM (inactive) | > 100 µM (inactive) | > 100 µM (inactive) | > 100 µM (inactive)
4 | CC(C)(C)c1cc(C2NC(=O)NC2=O)cc(C(C)(C)C)c1O (centres undefined) | > 10 µM (inactive) | > 100 µM (inactive) | > 100 µM (inactive) | 27.9 µM (inactive) | > 100 µM (inactive) | 38.1 µM (inactive) | > 100 µM (inactive) | 24.7 µM (inactive) | 35.6 µM (inactive) | 31 µM (inactive) | 47 µM (inactive) | > 100 µM (inactive) | 56.8 µM (inactive) | – | 32.8 µM (inactive) | 34.1 µM (inactive) | 64.4 µM (inactive) | > 100 µM (inactive) | > 100 µM (inactive) | 46 µM (inactive)
5 | CCN(C(C)=O)c1cnc(/C=N/NC(N)=S)c2ccccc12 | 1.61 µM (inactive) | 19.8 µM (inactive) | 5 µM (inactive) | 2.67 µM (inactive) | 5.61 µM (inactive) | > 40.4 µM (inactive) | 1.38 µM (inactive) | 2.81 µM (inactive) | 18.6 µM (inactive) | 4.42 µM (inactive) | 7.01 µM (inactive) | 3.44 µM (inactive) | 3.36 µM (inactive) | 1.5 µM (inactive) | 2.95 µM (inactive) | 2.58 µM (inactive) | 3.14 µM (inactive) | 2.93 µM (inactive) | 3.49 µM (inactive) | 5.69 µM (inactive)
6 | O=C(O)C(SC1=NC(=O)C2(NN1)c1ccccc1-c1ccccc12)SC1=NC(=O)C2(NN1)c1ccccc1-c1ccccc12 | > 10 µM (inactive) | > 10 µM (inactive) | > 10 µM (inactive) | > 10 µM (inactive) | > 10 µM (inactive) | > 10 µM (inactive) | 9.02 µM (inactive) | 8.67 µM (inactive) | > 10 µM (inactive) | > 10 µM (inactive) | > 10 µM (inactive) | > 10 µM (inactive) | > 10 µM (inactive) | > 10 µM (inactive) | > 10 µM (inactive) | > 10 µM (inactive) | > 10 µM (inactive) | > 10 µM (inactive) | > 10 µM (inactive) | 6.89 µM (inactive)
7 | CSC1=C(c2ccc(Cl)cc2)SC(N2CCCCC2)N1c1ccc([N+](=O)[O-])cc1 (centres undefined) | 31.6 µM (inactive) | 19 µM (inactive) | 27.3 µM (inactive) | 23 µM (inactive) | 20 µM (inactive) | 26.7 µM (inactive) | 30.6 µM (inactive) | 35.6 µM (inactive) | 27.1 µM (inactive) | 31.6 µM (inactive) | 39.4 µM (inactive) | 76.9 µM (inactive) | 23 µM (inactive) | 23.6 µM (inactive) | 24.2 µM (inactive) | 21.8 µM (inactive) | 24 µM (inactive) | 21.3 µM (inactive) | 28.8 µM (inactive) | 23.9 µM (inactive)
8 | CC[C@@]1(O)C(=O)OCc2c1cc1n(c2=O)Cc2c-1nc1ccccc1c2/C=N\NC(=O)C(N)Cc1c[nH]cn1 (some centres undefined) | 0.213 µM (active) | 0.857 µM (active) | 3.45 µM (inactive) | 0.43 µM (active) | 0.0524 µM (active) | 1.1 µM (active) | 0.131 µM (active) | 0.0885 µM (active) | 3.4 µM (inactive) | 1.37 µM (inactive) | 1.9 µM (inactive) | 0.571 µM (active) | 0.111 µM (active) | 0.0832 µM (active) | 0.372 µM (active) | 3.95 µM (inactive) | 0.132 µM (active) | 0.0528 µM (active) | 0.0908 µM (active) | 0.158 µM (active)
9 | CCOP(=O)(OCC)/C(C#N)=C/c1c(C)[nH]c2ccccc12 | > 100 µM (inactive) | > 100 µM (inactive) | > 100 µM (inactive) | > 100 µM (inactive) | > 100 µM (inactive) | > 100 µM (inactive) | > 100 µM (inactive) | > 100 µM (inactive) | > 100 µM (inactive) | > 100 µM (inactive) | > 100 µM (inactive) | > 100 µM (inactive) | > 100 µM (inactive) | > 100 µM (inactive) | > 100 µM (inactive) | > 100 µM (inactive) | > 100 µM (inactive) | > 100 µM (inactive) | > 100 µM (inactive) | > 100 µM (inactive)
10 | O=C1C=C(NCCOCCO)C(=O)c2c(O)ccc(O)c21 | 37.4 µM (inactive) | > 100 µM (inactive) | > 100 µM (inactive) | 22.5 µM (inactive) | 58.6 µM (inactive) | 24.3 µM (inactive) | 15.6 µM (inactive) | 16 µM (inactive) | 33.2 µM (inactive) | 18.2 µM (inactive) | 17.3 µM (inactive) | > 100 µM (inactive) | 23.4 µM (inactive) | 29.2 µM (inactive) | 24 µM (inactive) | 23.6 µM (inactive) | 47.4 µM (inactive) | 24 µM (inactive) | 32.4 µM (inactive) | 23.8 µM (inactive)
